In patent US20250288573A1 (H. LEE MOFFITT CANCER CENTER AND RESEARCH INSTITUTE, INC., priority 2018, published 2025):
“Also recorded” adds a separate entry of the source. Read-outs that look alike come from different tables or passages of the source.

Columns and labels:
IKZF1 = experiment: Western blot of IKZF1 (Ikaros) in T cells and multiple myeloma cells; type: cell-based
BRD4 = target: T1, BRD4 (Mus musculus, UniProt Q9ESU6); experiment: Western blot of BRD4 in activated mouse T cells; type: cell-based; conditions: for BRD4 expression / degradation: mouse T cells activated with anti-CD3ε/anti-CD28
T1 construct: endogenous in cells
Source text: (§1) On the right is a schematic diagram of CRBN/DDB1/CUL4A and ubiquitin degrading function. […] DMSO was used in these experiments as a vehicle control. […] CRBN is shown for human T cells and vinculin loading control of human and mouse T cells are provided. […] Results shown are representative of three independent experiments.

CRBN = target: T2, CRBN (Homo sapiens, UniProt Q96SW2); experiment: Western blot for expression of CRBN relative to vinculin in human T cells (CRBN degradation); type: cell-based; conditions: for remaining activity at 10 µM / remaining activity at 0.01 µM: read-out: Relative Density of CRBN (% of DMSO); for remaining activity at 0.01 µM: 24 h, 10nM
T2 construct: endogenous in cells; host or cells: primary human T cells / CD8+ T cells from peripheral blood
T2 sequence (Q96SW2 whole entry): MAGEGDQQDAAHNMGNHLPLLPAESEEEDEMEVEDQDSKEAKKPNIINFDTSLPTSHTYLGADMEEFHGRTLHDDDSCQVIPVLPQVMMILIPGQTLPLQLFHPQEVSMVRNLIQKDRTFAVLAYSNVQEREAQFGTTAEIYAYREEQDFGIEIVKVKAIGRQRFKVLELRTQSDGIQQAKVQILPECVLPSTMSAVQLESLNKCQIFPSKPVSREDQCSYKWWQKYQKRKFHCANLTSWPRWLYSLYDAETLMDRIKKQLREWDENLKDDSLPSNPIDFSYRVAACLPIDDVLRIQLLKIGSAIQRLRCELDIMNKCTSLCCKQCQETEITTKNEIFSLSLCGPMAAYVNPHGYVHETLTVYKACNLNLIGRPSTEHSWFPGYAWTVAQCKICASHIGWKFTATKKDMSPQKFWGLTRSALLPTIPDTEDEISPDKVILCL
Source text: Bortez=bortezomib; MG132=proteasome inhibitor; MLN4924=NEDD8 inhibitor.
This assay is a standard Western blot assay for expression of CRBN relative to vinculin.
[…] 0.1 percent DMSO was used as a vehicle control.

Ikaros = target: T3, Ikaros (Homo sapiens, UniProt Q13422); experiment: Ikaros degradation in isolated human CD8+ T cells; type: cell-based; conditions: increasing doses
T3 construct: This molecule has a DC50 for Ikaros at 10 μM and for CRBN at <1 μM; endogenous in cells; host or cells: isolated human CD8+ T cells
T3 sequence (Q13422 whole entry): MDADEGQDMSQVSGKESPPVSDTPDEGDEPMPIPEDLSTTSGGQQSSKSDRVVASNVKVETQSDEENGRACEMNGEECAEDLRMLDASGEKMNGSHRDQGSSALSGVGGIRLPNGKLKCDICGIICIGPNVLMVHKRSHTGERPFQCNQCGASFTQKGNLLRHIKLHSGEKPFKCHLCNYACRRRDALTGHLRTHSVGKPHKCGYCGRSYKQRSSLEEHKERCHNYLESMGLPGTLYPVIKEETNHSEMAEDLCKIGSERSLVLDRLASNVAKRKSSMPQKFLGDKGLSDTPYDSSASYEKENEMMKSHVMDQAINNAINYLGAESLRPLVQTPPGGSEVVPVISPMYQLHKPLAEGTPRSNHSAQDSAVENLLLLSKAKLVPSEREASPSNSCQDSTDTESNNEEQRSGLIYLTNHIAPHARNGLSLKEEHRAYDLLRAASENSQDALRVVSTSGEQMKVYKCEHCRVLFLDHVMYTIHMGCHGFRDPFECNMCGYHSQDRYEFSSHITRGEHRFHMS
Protocol: Isolated human CD8+ T cells were treated with increasing doses of EC1-168. This molecule has a DC50 for Ikaros at 10 μM and for CRBN at <1 μM. Unique functional properties may be afforded to the CDM compounds via distinct protein recruitment.
Isolated human CD8+ T cells were treated with increasing doses of EC2-134. This molecule has a DC50 for Ikaros at 10 nM and for CRBN at 100 μM. Unique functional properties may be afforded to the CDM compounds via distinct protein recruitment.

cereblon = target: T4, cereblon (Mus musculus, UniProt Q8C7D2); experiment: Western blot of cereblon in splenic T cells / splenocytes of mice treated orally with a single dose; type: in vivo; conditions: for cereblon levels in purified splenic T cells: single oral dose of 75 mg/kg
T4 construct: from tissue; host or cells: spleen: purified splenic T cells and total splenocytes of treated mice
T4 sequence (Q8C7D2 1-445): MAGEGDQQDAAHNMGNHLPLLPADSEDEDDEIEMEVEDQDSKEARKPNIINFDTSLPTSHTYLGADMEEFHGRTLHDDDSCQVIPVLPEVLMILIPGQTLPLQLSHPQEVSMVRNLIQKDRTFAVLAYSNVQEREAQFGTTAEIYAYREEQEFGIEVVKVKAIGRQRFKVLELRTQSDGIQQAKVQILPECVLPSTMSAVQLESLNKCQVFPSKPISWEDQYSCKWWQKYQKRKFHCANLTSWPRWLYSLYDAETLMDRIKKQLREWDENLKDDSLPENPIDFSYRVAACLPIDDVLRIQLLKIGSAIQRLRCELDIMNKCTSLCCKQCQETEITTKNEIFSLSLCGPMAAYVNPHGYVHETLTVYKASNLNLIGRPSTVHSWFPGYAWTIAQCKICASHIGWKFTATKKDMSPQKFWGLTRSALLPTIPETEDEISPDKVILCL
Protocol: FIG. 24 is a graph of results from Western blots from purified splenic T cells of mice treated orally with a single dose of 75 mg/kg SM2-145. Three mice were obtained from each time point (1, 6, 12, and 24 hrs) after treatment.
FIG. 25 contains a Western blot analysis of purified T cells from mice treated orally with a single dose of 75 mg/kg EC2-035 and EC2-134.

c-Myc = experiment: Western blot of c-Myc in activated human T cells; type: cell-based; conditions: human T cells activated by anti-CD3ε/anti-CD28
Source text: as §1

[1] = system: T cells expanded from patients with melanoma; experiment: Cytokine assays (IL-2, IFN-γ) in T cells expanded from patients with melanoma; type: cell-based, human
Source text: Veh=vehicle-treated cells DMSO 0.1%

IL-2 [2] = experiment: IL-2 production in mouse T cells; type: cell-based; conditions: absence of CD28 co-stimulation
Protocol: (§2) IL-2 mRNA (FIG. 8A) and protein secretion (FIG. 8B) were measured in cells and culture supernatant, respectively. […] Cytokine levels were determined by ELISA. […] Results are representative of three independent experiments. […] Statistical analysis was conducted ANOVA, followed by Dunnett's multiple comparison test. *=p<0.05, ***=p<0.001 FIGS. 9A-9C show the structure of cereblon is concerved across different species. […] FIG. 9C is an overlay of human and mouse cereblon (Val380 and Ile391 for mCRBN; Glu377 and Val388 for hCRBN), are demarcated as thin tubes.

IL-2 [3] = experiment: IL-2 mRNA and protein secretion in anti-CD3 stimulated human T cells; type: cell-based; conditions: anti-CD3 stimulation without CD28 co-stimulation, relative to DMSO
Protocol: as §2
Cereblon acts as the E3 ubiquitin ligase (UbL) substrate receptor component of the DNA damage binding protein 1 (DDB1), cullin-4 (CUL4A and B), and ROC1 complex ([…]). […] Blood Cancer J 5, e354, 2015). […] […]. […] Br. J. Haematol. […] Leukemia 26:1425-1429, 2012), which is the hallmark of the immunomodulatory drug class.

cereblon (CRBN) [4] = target: T5, cereblon (CRBN) (Mus musculus, UniProt Q8C7D2); experiment: Western blot of cereblon (CRBN) levels in mouse CD8+ T cells; type: cell-based; conditions: 24 hours of treatment
T5 construct: endogenous in cells; host or cells: mouse CD8+ T cells
T5 sequence (Q8C7D2 1-445): T4 sequence (Q8C7D2 1-445)

[5] = system: CD25 (IL-2 receptor alpha); experiment: Expression of activation marker CD25 on activated human T cells; type: cell-based; conditions: 10 nM
Source text: FIG. 23 is a graph showing human T cells activated with a series of immunomodulatory drugs lead to higher levels of expression of the activation marker CD25 (IL-2 receptor alpha) compared to unstimulated cells and control activated cells.

cereblon (CRBN) [6] = target: T6, cereblon (CRBN) (Homo sapiens, UniProt Q96SW2); experiment: Kd from ITC; type: binding
T6 sequence (Q96SW2 whole entry, species assumed): as the sequence (Q96SW2 whole entry) above

cereblon (CRBN) [7] = target: T6, cereblon (CRBN); experiment: Kd and % inhibition from FI; type: binding; conditions: for Kd: FI, read-out: Kd (FI) (converted); for inhibition at 200 µM: read-out: % inhibition @ 200 uM from *FI
Pharmacokinetic studies = conditions: in vivo
[8] = isolated human CD8+ T cells, increasing doses, read-out: DC50 for CRBN
[9] = single oral dose of 12.5, 25, and 75 mg/kg

For `Nc1cccc2c1C(=O)N(C1CCC(=O)NC1=O)C2=O` (centres unmarked) [pomolidomide], the IKZF1 expression (IKZF1) was “decreased”, the “BRD4 expression / degradation” value (BRD4) was “failed to reduce BRD4 expression” and the “effect on dBET1-induced BRD4 degradation” value (BRD4; mouse T cells, Pom 0.5 μM with dBET1) was “reversed the degradation observed through dBET1”.
`O=C1CCC(N2C(=O)c3cccc(NCc4ccc(CNc5cccc6c5C(=O)N(C5CCC(=O)NC5=O)C6=O)cc4)c3C2=O)C(=O)N1` (centres unmarked) [EC2-134] gave a remaining activity at 10 µM (CRBN) of 13.8%, a remaining activity at 0.01 µM (CRBN; human T cells, 24 hours) of 4% and a DC50 (CRBN; [8]) of 100 µM. For the same compound, the DC50 (Ikaros) was 0.01 µM, the “cereblon levels in purified splenic T cells” value (cereblon) was “sustained reduction in cereblon levels at 6, 9 and 12 hours” and the “cereblon levels in purified T cells” value (cereblon; [9]) was “inverse dose dependent levels of cereblon”. For the same compound, the “cereblon levels in total splenocytes” value (cereblon; [9]) was “inverse dose dependent levels of cereblon” and the “cereblon levels in purified T cells at the lowest dose” value (cereblon; single oral dose, lowest dose (12.5 mg/kg), compared with Crbn-/- T cells) was “significantly reduced”.
For `Cc1sc2c(c1C)C(c1ccc(Cl)cc1)=N[C@@H](CC(=O)OC(C)(C)C)c1nnc(C)n1-2` [JQ1], the c-Myc suppression (c-Myc) was “Suppression of c-Myc is evident”.
For `Cc1nc2cccc(N)c2c(=O)n1C1CCC(=O)NC1=O` (centres unmarked) [CC122, avadomide, reference compound], the “T cell function (IL-2 and IFN-γ after anti-CD3 (OKT3) activation)” value [1] was “actively increasing T cell function”.
For `Nc1cccc2c1CN(C1CCC(=O)NC1=O)C2=O` (centres unmarked) [lenalidomide, Lenalidomide], the IL-2 production (IL-2 [2]) was “not”, the “IL-2 production (mRNA and protein secretion)” value (IL-2 [3]) was “significantly increased; also recorded: augments IL-2 production” and the “cereblon (CRBN) levels (Western blot)” value (cereblon (CRBN) [4]) was “not”.
For `CS(=O)(=O)O.O=C1CC[C@H](N2Cc3c(OCc4ccc(CN5CCN(Cc6ccc(COc7cccc8c7CN([C@H]7CCC(=O)NC7=O)C8=O)cc6)CC5)cc4)cccc3C2=O)C(=O)N1` [EC1-168, (4-(4-(((2-((S)-2,6-dioxopiperidin-3-yl)-1-oxoisoindolin-4-yl)oxy)methyl)benzyl)-114-piperazin-1-yl)(4-(((2-((S)-2,6-dioxopiperidin-3-yl)-1-oxoisoindolin-4-yl)oxy)methyl)phenyl)methylium methyl sulfonate], the DC50 (CRBN; [8]) was < 1 µM, the DC50 (Ikaros) was 10 µM and the “expression of the activation marker CD25” value [5] was “induces more immune potentiation”.
For `Cc1sc2c(c1C)C(c1ccc(Cl)cc1)=N[C@@H](CC(=O)NCCCCNC(=O)COc1cccc3c1C(=O)N(C1CCC(=O)NC1=O)C3=O)c1nnc(C)n1-2` (some centres unmarked) [dBET1], the c-Myc suppression (c-Myc) was “Suppression of c-Myc is evident” and the “BRD4 expression / degradation” value (BRD4) was “degrades BRD4”.
In the case of `O=C1CCC(N2Cc3c(CCCOCCCc4cccc5c4CN(C4CCC(=O)NC4=O)C5=O)cccc3C2=O)C(=O)N1` (centres unmarked) [SM2-144, 3,3′-((Oxybis(propane-3,1-diyl))bis(1-oxoisoindoline-4,2-diyl))bis(piperidine-2,6-dione)], the remaining activity at 10 µM (CRBN) is reported as 3.05%, the remaining activity at 0.01 µM (CRBN; human T cells, 24 hours) is reported as 24.1% and the Kd (cereblon (CRBN) [6]) is reported as 4.4 ± 1.4 µM. It also gave a Kd (cereblon (CRBN) [7]) of 5.88 µM and an inhibition at 200 µM (cereblon (CRBN) [7]) of 73.9 ± 14.9%.
In the case of `O=C1CCC(N2Cc3c(CCCOCCOCCCc4cccc5c4CN(C4CCC(=O)NC4=O)C5=O)cccc3C2=O)C(=O)N1` (centres unmarked) [SM2-145, 3,3′-(((Ethane-1,2-diylbis(oxy))bis(propane-3,1-diyl))bis(1-oxoisoindoline-4,2-diyl))bis(piperidine-2,6-dione)], the remaining activity at 10 µM (CRBN) is reported as 7.21%, the remaining activity at 0.01 µM (CRBN; human T cells, 24 hours) is reported as 21% and the “specificity for CRBN degradation over Ikaros” value (CRBN; human T cells, 24 hours) is reported as “Specificity is shown for CRBN degradation over Ikaros”. For the same compound, the “intracellular cereblon levels (Western blot)” value (CRBN; human T cells, 24 hours of treatment) was “reduced intracellular cereblon levels”, the DC50 (CRBN; human T cells, 24 hours, read-out: DC50 (concentration leading to 50% degradation of cereblon)) was 0.00288 µM and the “stability in pharmacokinetic studies” value (Pharmacokinetic studies) was “Poor stability”. The “cereblon levels in purified splenic T cells” value (cereblon) was “partial reduction in cereblon levels at 6 hours”, the “T cell function (IL-2 and IFN-γ after anti-CD3 (OKT3) activation)” value [1] was “actively increasing T cell function” and the “cereblon (CRBN) levels (Western blot)” value (cereblon (CRBN) [4]) was “reduced cereblon (CRBN) levels”. It also gave a Kd (cereblon (CRBN) [6]) of 6.6 ± 0.8 µM, a Kd (cereblon (CRBN) [7]) of 6.59 ± 1.57 µM and an inhibition at 200 µM (cereblon (CRBN) [7]) of 70.19 ± 0.28%.
